The text below walks through data of paper PMC6049614 (Chemical Communications (Cambridge, England), 2018).

Where a SMILES comes first, the peptide text is derived from it. Bridges are numbered along the chain shown (N, C = ends). [ ]: non-standard residue; d: D form. The star is where a group is joined. X1 = O=C(O)CN1CCN(CC(=O)O)CCN(Cc2ccc(CC(=O)*)cc2)CC1; Mpa = O=C(O)CCS

On the set-up of data set [1]: method as in PMID 693485. Particulars: following i.v. injection; cited from earlier work.
The nature of the next data set: in vivo. Particulars: rat; for tissue uptake at 0.5 h / tissue uptake at 10 min: female, Wistar, in vivo, total radioactivity; for tissue uptake at 0.5 h: inhaled or intranasal. As for the experimental part: To investigate the plausibility of i.n. administration for OT-like therapies, given the similar structure and hydrophilic profile between AlF-NODA-dLVT and OT, in vivo tissue distribution of [^18F]AlF-NODA-dLVT was determined following i.n. or i.v. administration. […]. Here, it is anticipated that both routes show independent kinetic and metabolic profiles and the extended apparent availability of OT following i.n. administration supports a longer timeframe for this study.[27],[28] Distribution was determined through gamma counting of radioactivity in isolated tissue. A large portion underwent excretion via kidneys (i.v. 4.6 ± 0.4%ID per g; i.n. 1.31 ± 0.7%ID per g) and urine (i.v. 2.5 ± 1.2%ID per g; i.n. 7.7 ± 2.2%ID per g), as expected from the hydrophilic character of the tracer, similar to previous results found with radiolabelled OT given i.v. (Fig. 4A).[29]
Fig. 4 Biodistribution of [^18F]AlF-NODA-dLVT in rat. […] Both are shown relative to blood levels following either i.n. (30 min) or i.v. (10 min) administration. Each data point corresponds to mean ± SD, n = 3.
All animal experiments were performed in accordance to the Animals (Scientific Procedures) Act 1986 and were approved by the King’s college London ethical review committee. The work was performed under PPL 70/8230 (Reza Rezavi). Adult female Wistar rats (220 ± 4.5 g) were group housed at 21 ± 1 °C in a 12 h light:dark cycle with ad libitum access to standard rat chow and water. [18F]AlF-NODA-dLVT was formulated in 0.9% saline to contain no more than 5% MeOH. Female Wistar rats received a dose of [18F]AlF-NODA-dLVT by tail vein injection (up to 650 μL in volume), or via nasal administration using a syringe with a plastic cannula attached to one nostril (25 μL per nare).
A 0.3 mL insulin syringe, containing a 29-gauge needle, was fitted with a PE10 cannula (15 mm). The cannula was fitted so that it covered approximately 3 mm of the needle tip.
Radioligand was added to the syringe and the activity measured before and after administration to calculate the injected dose (ID). Anesthesia was induced using a mixture of 5% isoflurane and oxygen (Animalcare, UK) at a flow rate of 1 L/min and maintained at 2.5% isoflurane.
Once unresponsive, the rat was held in an almost vertical position and radioactivity was administered through one nare at the back of the nasal cavity.
Rats were sacrificed by removal of the heart under isoflurane anaesthesia at 10 min following tail vein injection or 30 min following i.n. administration. Major organs were excised, washed with saline, weighed and counted in a gamma counter (LKB Wallac 1282), together with standards of the injection mixture. Organ uptake was calculated as percentage injected dose per gram [%ID/g] of tissue mass. Data are reported as mean ± SD.

The nature of the next data set: physchem. The following applies: pH 7.4. The data set is classed as physicochemical. As for the experimental part:
(§1) To justify use of [Al^18F]NODA-dLVT in vivo, tracer lipophilicity and specific binding were determined through a standard shake flask assay and rat brain autoradiography, respectively. A log D7.4 of –0.54 ± 0.1 was established for [Al^18F]NODA-dLVT indicating a hydrophilic profile and potential for low non-specific binding. To investigate the feasibility of [Al^18F]NODA-dLVT for nervous system imaging, tracer was incubated at a concentration of 3 nM, either alone or in the presence of excess OT (10 μM) with brain tissue cut in the sagittal plane to determine total vs. non-specific binding (Fig. 3). This enabled calculation of % specific binding of [Al^18F]NODA-dLVT to regions of brain tissue (ESI, ^† Section 4.2). [^18F]AlF-NODA-dLVT specifically bound regions known to express appreciable levels of OTR (Fig. 3),[23]–[26] including hippocampus (CA1: 53 ± 4%; subiculum, S: 60 ± 1%), central amygdala nucleus (ac: 56 ± 1%), olfactory systems (olfactory tubercle, Tu: 53 ± 5%; anterior olfactory nucleus, AO: 38 ± 2%), acumens nuclei (Acb: 43 ± 4%), and cortical regions (visual cortex, V1: 61 ± 4%; motor cortex, MC: 42 ± 4%).

The target in a further data set is T1, OTR in rat brain slices (Rattus norvegicus, UniProt P70536).
T1 construct: from tissue; host or cells: sagittal brain sections of male Wistar rats
T1 sequence (P70536 1-388): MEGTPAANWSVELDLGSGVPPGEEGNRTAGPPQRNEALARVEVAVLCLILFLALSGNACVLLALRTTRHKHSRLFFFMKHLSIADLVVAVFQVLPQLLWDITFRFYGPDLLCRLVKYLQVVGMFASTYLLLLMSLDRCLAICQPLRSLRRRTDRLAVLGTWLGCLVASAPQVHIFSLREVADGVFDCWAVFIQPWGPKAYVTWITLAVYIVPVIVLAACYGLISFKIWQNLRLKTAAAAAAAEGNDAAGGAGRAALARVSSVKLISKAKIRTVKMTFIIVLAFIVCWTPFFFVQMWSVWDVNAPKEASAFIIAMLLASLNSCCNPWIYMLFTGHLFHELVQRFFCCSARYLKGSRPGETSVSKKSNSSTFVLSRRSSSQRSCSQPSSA
The data set is described as follows: Rat brain autoradiography, specific binding. The following applies: 3 nM tracer, nonspecific with 10 μM OT, rat brain sagittal slices. The method, then: as §1
Fig. 3 Specific binding profile of [^18F]AlF-NODA-dLVT. Radiograms of total (top; 3 nM [^18F]AlF-NODA-dLVT) and nonspecific binding (bottom; 3 nM [^18F]AlF-NODA-dLVT and 10 μM OT) of [^18F]AlF-NODA-dLVT to rat brain slices in the sagittal pane. Areas with high specific binding are indicated on the figure with arrow heads. Key: AO = anterior olfactory nucleus; CA1 = field CA1 of the hippocampus; Acb = accumbens nuclei; Tu = olfactory tubercle; VMH = ventromedial hypothalamic nuclei; MC = motor cortex; V1 = primary visual cortex; S = subiculum; ac = central amygdala nucleus; lo = lateral olfactory tract. […]
was 84 ± 2%. After 30 min 18F yields remained at 84 ± 3%.
4.1 Tissue Preparation for rat brain autoradiography
Male Wistar rats (250 g; n=3) were stunned then decapitated. Brains were rapidly removed, incubated in 20% sucrose solution for 2 h, and immediately frozen (-80 °C). Tissues were stored at -80 °C until required. Rat brains were sectioned in the sagittal plane (20 µm thickness; according to the atlas of Paxinos and Watson, 1998). Tissues were cut using a cryostat microtome (CM3050S, Leica, UK), and thaw-mounted onto glass microscope slides. Slides were stored at -80 °C until use.
4.2 Autoradiography Procedure
Tissue was thawed to room temperature, dried then washed with ice cold buffer (50 mM Tris, pH 7.4). Sections were air dried and incubated for 1 h at room temperature with [18F]AlF-NODA-dLVT (3 nM) in buffer (50 mM Tris pH 7.4, 10 mM MgCl2). For nonspecific binding, OT (10 µM) was co-incubated with [18F]AlF-NODA-dLVT (3 nM) over the duration of the experiment. After incubation, slides were washed with ice-cold buffer (2 min × 2), followed by a final wash in ice-cold distilled water (2 min). Slides were dried in a cool airstream then exposed to 18F sensitive phosphor screens (Amersham, UK) with [18F]AlF-NODA-dLVT standards in X-ray cassettes overnight. Phosphor screens were imaged using a Typhoon 8600 scanner (Molecular Dynamics) and images were analysed with OptiQuant 5.0 (Perkin Elmer) and FIJI. Values were converted to relative binding percentages using calibrated [18F]AlF-NODA-dLVT standards. Binding potential (BP) is defined as the binding of tracer in brain region/total activity incubated as determined by the standard. Specific binding in each region is calculated by comparing the total and non-specific BP by the equation: ((total BP – non-specific BP)/total BP) × 100.

One may read the tissue uptake as the percentage of the injected dose found per gram of tissue. The logD is lipophilicity at a set pH, counting ionised and neutral species.

In the case of `CC[C@H](C)[C@@H]1NC(=O)[C@H](Cc2ccc(O)cc2)NC(=O)[C@@H](N)CSSC[C@@H](C(=O)N2CCC[C@H]2C(=O)N[C@@H](CC(C)C)C(=O)NCC(N)=O)NC(=O)[C@H](CC(N)=O)NC(=O)[C@H](CCC(N)=O)NC1=O` [OTc, oxytocin], the plasma half-life result in data set [1] is “approximately 3 min”.

For `CC[C@H](C)[C@@H]1NC(=O)[C@H](Cc2ccc(O)cc2)NC(=O)CCSSC[C@@H](C(=O)N2CCC[C@H]2C(=O)N[C@@H](CCCCNC(=O)Cc2ccc(CN3CCN(CC(=O)O)CCN(CC(=O)O)CC3)cc2)C(=O)NCC(N)=O)NC(=O)[C@H](CC(N)=O)NC(=O)[C@H](CCC(N)=O)NC1=O` [[^18F]AlF-NODA-dLVT] ([Mpa]YIQNCPK(X1)G-NH2; disulfide 1-6), the tissue uptake at 0.5 h in “in vivo” (uptake in brain parenchyma) was 0.11 ± 0.03 %ID/g. Further, in “in vivo” (uptake in cerebellum), the tissue uptake at 0.5 h is 0.31 ± 0.26 %ID/g. Besides, the tissue uptake at 0.5 h in “in vivo” (uptake in kidneys) is 1.31 ± 0.7 %ID/g. The tissue uptake at 0.5 h in “in vivo” (uptake in olfactory bulb) worked out at 2.3 ± 1.8 %ID/g. For the same molecule, the tissue uptake at 10 min in the data set “in vivo” (iv, uptake in brain parenchyma) is 0.05 ± 0.03 %ID/g. Further, the tissue uptake at 10 min in the data set “in vivo” (iv, uptake in cerebellum) was determined as 0.05 ± 0.01 %ID/g. Besides, the tissue uptake at 10 min in “in vivo” (iv, uptake in kidneys) is 4.6 ± 0.4 %ID/g. The tissue uptake at 10 min in the data set “in vivo” (iv, uptake in olfactory bulb) was determined as 0.05 ± 0.02 %ID/g. For the same molecule, in “in vivo” (iv), the brain permeable material entry was “approximately 4.7 × 10^–2 %ID per g”. Further, the log distribution coefficient (logD) in “physchem” was -0.54. Moreover, at OTR in rat brain slices, the “% specific binding, acumens nuclei (Acb)” value is on record as 43 ± 4%; the “% specific binding, anterior olfactory nucleus (AO)” value came out at 38 ± 2%; the “% specific binding, central amygdala nucleus (ac)” value came to 56 ± 1%; the “% specific binding, hippocampus CA1” value was determined as 53 ± 4%. For the same molecule, on OTR in rat brain slices, the “% specific binding, motor cortex (MC)” value was found to be 42 ± 4%; the “% specific binding, olfactory tubercle (Tu)” value came to 53 ± 5%; the “% specific binding, subiculum (S)” value was 60 ± 1%; the “% specific binding, visual cortex (V1)” value is 61 ± 4%.
